In US20120258481A1, “CROSS-LINKING ATP ANALOGS” (WAYNE STATE UNIVERSITY, priority 2011, published 2012):

Assays:
[1] = molecular target: T1, CK2 and α-casein (Homo sapiens, UniProt P68400); assay: Kinase-catalyzed photocrosslinking with full-length α-casein, SDS-PAGE, coomassie and CK2 western blot; type: biochemical; conditions: α-casein 100 μM, co-substrate 1.3 mM, 365 nm UV; CK2 immunoblot
T1 construct: purchased New England Biolabs (NEB)
Experimental: Having established phosphorylation-dependent crosslinking between kinase and peptide substrate, crosslinking with a full-length protein substrate was tested. The α-casein protein has been widely used as a model CK2 substrate in phosphoprotein analysis. Crosslinking was carried out by incubating a mixture of CK2 and α-casein with ATP-ArN3 in the presence of UV light. The products were separated by SDS-PAGE and analyzed by coomassie staining (FIG. 3a) and western blot analysis (FIG. 3b). […] Because phosphate transfer is required, a powerful feature of ATP-ArN3-mediated crosslinking is that a kinase substrate is necessarily present in the crosslinked product. Coupled with mass spectrometric analysis, phosphorylation-dependent kinase-substrate crosslinking can determine the sites of phosphorylation in addition to the effector kinase. Importantly, the crosslinking approach is appropriate for studies with cell lysates or homogenized tissue samples since natural kinase and substrate are utilized. […] The reaction products were separated by SDS-PAGE and visualized by coomassie staining, silver staining, in-gel fluorescence imaging, or western blotting with a CK2 antibody (Millipore) after transfer onto a PVDF membrane (Immobilon-PSQ, Millipore). […] The reaction mixtures were incubated for 2 hours at 30° C. before quantitative MALDI-TOF MS analysis (Bruker Daltonics), as previously described. […]

[2] = molecular target: T2, CK2 kinase (Homo sapiens, UniProt P68400); assay: Kinase-catalyzed photocrosslinking with peptide substrate Rho-14, in-gel fluorescence; type: biochemical; conditions: Rho-14 200 μM, co-substrate 1.3 mM, 365 nm UV 2 hours at 30° C.
T2 construct: purchased New England Biolabs (NEB)
T2 sequence (P68400 whole entry): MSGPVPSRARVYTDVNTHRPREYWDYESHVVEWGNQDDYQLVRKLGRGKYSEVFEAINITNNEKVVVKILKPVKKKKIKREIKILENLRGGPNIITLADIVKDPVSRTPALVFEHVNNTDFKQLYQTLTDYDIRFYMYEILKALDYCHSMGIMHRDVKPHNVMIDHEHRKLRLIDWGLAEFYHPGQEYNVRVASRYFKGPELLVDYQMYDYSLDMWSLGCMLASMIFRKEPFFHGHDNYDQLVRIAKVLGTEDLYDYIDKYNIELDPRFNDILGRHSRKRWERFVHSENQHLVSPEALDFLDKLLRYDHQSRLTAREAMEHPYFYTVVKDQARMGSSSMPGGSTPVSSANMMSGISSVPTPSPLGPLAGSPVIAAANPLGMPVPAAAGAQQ
T2 sequence (P67870 whole entry partner): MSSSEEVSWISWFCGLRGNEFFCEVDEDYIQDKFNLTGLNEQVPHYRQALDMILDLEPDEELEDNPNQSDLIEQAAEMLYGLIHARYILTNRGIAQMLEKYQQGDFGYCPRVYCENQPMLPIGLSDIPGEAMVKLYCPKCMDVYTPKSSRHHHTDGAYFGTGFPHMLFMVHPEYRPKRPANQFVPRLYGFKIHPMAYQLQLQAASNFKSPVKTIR
Experimental: Crosslinking was tested by incubating CK2 kinase and ATP-ArN3 with rhodamine-labeled CK2 peptide substrate 14 (Rho-[sequence], Rho-14). Simultaneously, the reaction mixture was irradiated with 365 nm light to afford a covalent crosslink (FIG. 1c). If kinase-substrate crosslinking occurred, the kinase was expected to become fluorescently labeled, which would be visualized by gel electrophoresis. […] As a final critical control, the crosslinked product was treated with acid to cleave the phosphoramidate bond bridging the peptide and kinase (FIG. 1c).
Photocrosslinking was initiated by irradiating with a handheld UV lamp at 365 nm for 2 hours at 30° C. The phosphoramidate bond in the crosslinked products was cleaved by adding trifluoroacetic acid (TFA) to a final concentration of 50% and incubating at 16° C. for 3 hours. The reaction products were separated by SDS-PAGE and visualized by coomassie staining, silver staining, in-gel fluorescence imaging, or western blotting with a CK2 antibody (Millipore) after transfer onto a PVDF membrane (Immobilon-PSQ, Millipore).
For the photocrosslinking experiments, CK2 (50 units/μL, 0.7 μM) was incubated with either Rho-14 (200 μM,) or full length α-casein (100 μM, Sigma), while Abl (20 units/μL, 44.4 nM) was incubated with ROX-13 (200 μM). All reactions also contained ATP or ATP-ArN3 (1.3 mM) and the manufacturers' kinase buffer.

T1 sequence (P68400 whole entry): as the sequence (P68400 whole entry) above
T1 sequence (P67870 whole entry partner): as the sequence (P67870 whole entry partner) above

- CK2-α-casein crosslinked complex (68 kDa) formation [1]: crosslinked complex was absent
- fluorophore labeling of CK2 (kinase-substrate crosslinking) [2]: no fluorescence labeling was observed
SMILES: Nc1ncnc2c1ncn2[C@@H]1O[C@H](COP(=O)(O)OP(=O)(O)OP(=O)(O)O)[C@@H](O)[C@H]1O [ATP, Adenosine 5′-triphosphate]
